± gives the expanded uncertainty stated by the source.
Assay: xn = mol fraction of the nth substance listed
Conditions: Liquid; for viscosity: Capillary tube (Ostwald / Ubbelohde) method; for mass density: Vibrating tube method

CC(C)CCCC(C)CCCC(C)CCCCC(C)CCCC(C)CCCC(C)C (stereo not drawn) [2,6,10,15,19,23-hexamethyltetracosane] + O=C=O
Conditions	mass density [kg/m3]	viscosity [mPa·s]
313.15 K, 2790 kPa, x2 = 0.199	796.7 ± 2.4	11.4 ± 0.27
313.15 K, 3900 kPa, x2 = 0.299	799.1 ± 2.4	9.2 ± 0.22
313.15 K, 5300 kPa, x2 = 0.519	804.5 ± 2.4	5.1 ± 0.14
313.15 K, 11290 kPa, x2 = 0.519	810.3 ± 2.5	5.59 ± 0.15
313.15 K, 12320 kPa, x2 = 0.299	805.8 ± 2.4	10.5 ± 0.25
313.15 K, 12560 kPa, x2 = 0.199	804.5 ± 2.4	13.39 ± 0.32
313.15 K, 21910 kPa, x2 = 0.519	819.7 ± 2.5	6.47 ± 0.18
313.15 K, 23100 kPa, x2 = 0.299	813.6 ± 2.5	12.46 ± 0.3
313.15 K, 23440 kPa, x2 = 0.199	812.5 ± 2.5	16.14 ± 0.39
313.15 K, 42900 kPa, x2 = 0.519	836.1 ± 2.6	8.58 ± 0.24
313.15 K, 44510 kPa, x2 = 0.299	828.1 ± 2.5	17.08 ± 0.42
313.15 K, 45240 kPa, x2 = 0.199	826.3 ± 2.5	22.88 ± 0.57
313.15 K, 57150 kPa, x2 = 0.519	846 ± 2.6	10.52 ± 0.3
313.15 K, 58570 kPa, x2 = 0.299	836.5 ± 2.6	21.56 ± 0.53
313.15 K, 60140 kPa, x2 = 0.199	834.5 ± 2.6	28.7 ± 0.7
313.15 K, 71140 kPa, x2 = 0.519	854.8 ± 2.6	12.5 ± 0.37
313.15 K, 73410 kPa, x2 = 0.299	844.9 ± 2.6	26.51 ± 0.65
313.15 K, 74430 kPa, x2 = 0.199	841.6 ± 2.6	35.87 ± 0.87
338.15 K, 3100 kPa, x2 = 0.199	780.2 ± 2.4	5.61 ± 0.16
338.15 K, 3320 kPa, x2 = 0.299	782.1 ± 2.4	4.69 ± 0.12
338.15 K, 6440 kPa, x2 = 0.519	787.1 ± 2.4	2.96 ± 0.07
338.15 K, 10860 kPa, x2 = 0.519	791.5 ± 2.4	3.18 ± 0.08
338.15 K, 11180 kPa, x2 = 0.299	788.3 ± 2.4	5.36 ± 0.13
338.15 K, 11690 kPa, x2 = 0.199	787.3 ± 2.4	6.41 ± 0.17
338.15 K, 21260 kPa, x2 = 0.519	801 ± 2.4	3.58 ± 0.09
338.15 K, 21990 kPa, x2 = 0.199	795.1 ± 2.4	7.61 ± 0.21
338.15 K, 21990 kPa, x2 = 0.299	796.2 ± 2.4	6.16 ± 0.16
338.15 K, 42140 kPa, x2 = 0.519	817.7 ± 2.5	4.78 ± 0.12
338.15 K, 42690 kPa, x2 = 0.299	810.4 ± 2.5	8.3 ± 0.21
338.15 K, 42870 kPa, x2 = 0.199	808.7 ± 2.5	10.48 ± 0.3
338.15 K, 56660 kPa, x2 = 0.519	827.7 ± 2.5	5.67 ± 0.15
338.15 K, 57330 kPa, x2 = 0.299	819.2 ± 2.5	10.09 ± 0.26
338.15 K, 57570 kPa, x2 = 0.199	817.1 ± 2.5	12.79 ± 0.37
338.15 K, 69970 kPa, x2 = 0.199	823.5 ± 2.6	15.43 ± 0.48
338.15 K, 70400 kPa, x2 = 0.519	836.4 ± 2.6	6.59 ± 0.17
338.15 K, 71030 kPa, x2 = 0.299	826.9 ± 2.6	12.17 ± 0.32
363.15 K, 2670 kPa, x2 = 0.199	763.2 ± 2.3	3.2 ± 0.08
363.15 K, 3820 kPa, x2 = 0.299	766.2 ± 2.3	2.86 ± 0.07
363.15 K, 7280 kPa, x2 = 0.519	769.5 ± 2.3	1.93 ± 0.05
363.15 K, 10740 kPa, x2 = 0.519	772.7 ± 2.3	2.06 ± 0.05
363.15 K, 10840 kPa, x2 = 0.299	771.7 ± 2.3	3.14 ± 0.08
363.15 K, 11090 kPa, x2 = 0.199	770.2 ± 2.3	3.71 ± 0.09
363.15 K, 21180 kPa, x2 = 0.299	779.2 ± 2.4	3.59 ± 0.09
363.15 K, 21340 kPa, x2 = 0.519	782.5 ± 2.4	2.31 ± 0.06
363.15 K, 21420 kPa, x2 = 0.199	778.2 ± 2.4	4.33 ± 0.11
363.15 K, 42180 kPa, x2 = 0.519	799.3 ± 2.5	3 ± 0.08
363.15 K, 42250 kPa, x2 = 0.299	793.2 ± 2.4	4.8 ± 0.12
363.15 K, 42490 kPa, x2 = 0.199	792.2 ± 2.4	5.75 ± 0.15
363.15 K, 56170 kPa, x2 = 0.519	809.2 ± 2.5	3.43 ± 0.09
363.15 K, 56390 kPa, x2 = 0.299	801.8 ± 2.5	5.69 ± 0.14
363.15 K, 56730 kPa, x2 = 0.199	800.5 ± 2.5	6.83 ± 0.18
363.15 K, 70120 kPa, x2 = 0.519	818 ± 2.5	4.08 ± 0.11
363.15 K, 70320 kPa, x2 = 0.299	809.6 ± 2.5	6.81 ± 0.17
363.15 K, 70780 kPa, x2 = 0.199	807.9 ± 2.5	8.08 ± 0.21

From the NIST ThermoML archive (doi:10.1021/acs.jced.8b00786)
